The star is where a group is joined. Biotin = O=C1N[C@H]2[C@H](CS[C@H]2CCCCC(=O)*)N1
Experiments:
[1] = system: female Sprague–Dawley rats; experiment: In vivo acute systemic toxicity of SAPs, subcutaneous injection; design: species or system Rattus norvegicus; settings: for Body weights at the beginning of the experiment (means) / Body weight at the end of the experiment (means): single s.c. injection 10 mL/kg, mean ± SD, n = 5; for Body weights at the beginning of the experiment (means): day 0; for Body weight at the end of the experiment (means): day 5
Method: The general guidance from the ISO10993 to Biological evaluation of medical devices was followed. Animals were housed in plastic cages with free access to drinking water and a pelleted basal diet under controlled conditions of temperature (22 °C ± 3 °C), humidity (50 ± 10%) and light (12/12 h light/dark cycle). Rats were quarantined for the first 7 days and randomly divided into experimental and control groups. All animals were bred and maintained at CIBA (Biomedical Research Center of Aragon; Department of Experimental Surgery). Animal experimentation was approved by the Ethics Committee for Animal Experimentation from the University of Zaragoza (protocol number PI31/22), and all authors complied with the ARRIVE guidelines.SAPs or electrospun mats, empty micro-channels, and HS-filled micro-channels were subcutaneously administered to female Sprague–Dawley rats (Rattus norvegicus) 7 weeks old, non-pregnant, and nulliparous. The concentration of each SAP was: HS: 1%, 68: 3%, 46: 5%, C1: 3%, 65L: 3% and B42: 1%. On the day before administration, the animals were weighed, and the hair of their thoracic back was shaved. On day 1, the different SAPs were administered in one single dose by subcutaneous injection to each rat corresponding to each group. To devices, a skin incision of about 1 cm and subcutaneous dissection were performed under sterile conditions. Then, the products provided were introduced into the subcutaneous space, one piece per animal. Animals were weighed. Animals were euthanized by trained personnel using medical-grade Carbon dioxide (CO2). CO2 inhalation is the most common method of euthanasia used for small animals (i.e., mice, rats, guinea pigs, and hamsters). It is considered an acceptable euthanasia agent for small animals when properly administered. It was accepted by the Ethics Committee for Animal Experimentation from the University of Zaragoza (protocol number PI31/22). For histological assessment, lung, liver, spleen, kidneys, and duodenum were removed from rats, fixed with 4% paraformaldehyde, and embedded in paraffin. Sections from these samples were stained with hematoxylin and eosin (H&E). Blood samples were drawn at the end of the study by cardiac puncture. They were analysed with VetScan V2.
Data are expressed by mean ± standard deviation of the mean. Body weight comparison between groups was assessed using the repeated measures two-way ANOVA test. Bonferroni posthoc multiple comparisons were also used. Analysis of biochemical parameters was made with one-way ANOVA. They were performed using GraphPad Prism 8 (8.0.2).

[2] = system: TK6 human lymphoblastoid cell line; experiment: In vitro micronucleus (MN) assay; format: cell-based; settings: 4 h exposure, scored 48 h after exposure, 2000 cells per culture, three independent experiments
Method: (§1) The general guidance from OECD TG 487 and 490 were followed[26],[41]. TK6 cell suspensions were treated with serially diluted SAPs molecules at 37 °C for 4 h, washed and resuspended in fresh medium, and cultured in new flasks for the MN and TK assays. We conducted the MN test and the TK mutation assay 48 h and 72 h later, respectively.
To measure genotoxicity, cells were subcultured at a maximum density of 2.5 × 10^5 cells/mL (at most 20 × 0^6 cells) for 3 additional days to allow phenotypic expression of the TK gene prior to mutant selection. Forty-eight hours after treatment, the cells were prepared for the MN assay. Briefly, a small portion of cell culture from the flask was transferred to a 15 mL tube and centrifuged at 1200 rpm for 5 min at RT. The supernatant was then removed, and the pelleted cells were resuspended in PBS and placed in a cytospin funnel where cells were cytospun for 4 min at 900 rpm on microscope coverslips. A Diff-Quik staining was performed for microscope scoring. At least 2000 intact cells for each treatment were examined, and the cells containing MN were scored. Cells containing one or more micronuclei were recorded as micronucleated cells. […] The MN frequencies between non-treated and treated cells and the concentration–response relationship were statistically analyzed. […]

[3] = system: TK6 human lymphoblastoid cell line; experiment: Thymidine kinase gene mutation assay (TK GMA); format: cell-based; settings: TK6 cells, 4 h exposure, negative control 5.4 × 10^–6
Method: as §1
To measure genotoxicity, cells were subcultured at a maximum density of 2.5 × 10^5 cells/mL (at most 20 × 0^6 cells) for 3 additional days to allow phenotypic expression of the TK gene prior to mutant selection. Forty-eight hours after treatment, the cells were prepared for the MN assay. […] At least 2000 intact cells for each treatment were examined, and the cells containing MN were scored. Cells containing one or more micronuclei were recorded as micronucleated cells. […] The MN frequencies between non-treated and treated cells and the concentration–response relationship were statistically analyzed. […]
The cultures were maintained for another 24 h to allow phenotypic expression prior to plating for TK assay to determine the mutant fractions. […] Mutation frequencies (MFs) were finally calculated from cells grown in TFT selection medium or non-selection medium (for 7 days) via the Poisson distribution method. […] Changes in MFs relative to the negative controls (fold-change) were calculated and expressed graphically.

[4] = system: Mouse Embryonic Fibroblasts (MEFs); experiment: Scratch wound (wound healing) assay, fibroblasts; format: cell-based; settings: MEF fibroblasts, 0.01 mg/mL, IncuCyte scan every 4 h; three independent experiments
Method: Prior to initiating the assay, cells were grown to confluence in a 96-well plate at 37 °C in an atmosphere of 5% CO2 and, with the help of a 96-pin IncuCyte® Wound Maker simultaneously created precise and reproducible wounds in all wells of a 96-well plate by gently removing the cells from the confluent monolayer. After wounding, immediately aspirate the media from each well and wash the cells twice with culture media (100 µL/well). After washing, 100 µL of media containing 0.01 mg/mL of the appropriate agent was added to the corresponding well, and the plate was placed inside the IncuCyte. Assay plates were then equilibrated within the IncuCyte® for a minimum of 15 min before the first scan. The software was set to scan the plate every 4 h for migration assays.

[5] = rat blood at day 5, VetScan V2, one-way ANOVA, within expected reference values

Compound | Body weights at the beginning of the experiment (means) ([1]; rats) [g] | Body weight at the end of the experiment (means) ([1]; rats) [g] | percentage of micronucleated cells versus negative control [2] | mutant frequency (MF) ([3]; Mit C 8.3 µg/mL (positive control)) | mutant frequency (MF) ([3]; Mit C 25 µg/mL (positive control)) | Sodium blood test (NA+) compared with the control group [1, 5] | albumin (ALB) levels compared with the control group ([1]; rat blood, cardiac puncture at day 5, VetScan V2, one-way ANOVA, all group means incl. control slightly above reference) | body weight evolution versus control group ([1]; rats, s.c. 10 mL/kg, days 0, 2, 5, two-way ANOVA, p = 0.03, no significant change at single time points) | globulin blood tests (GLOB) compared with the control group [1, 5] | cell migration versus control (area under relative wound density % vs time curve) [4]
Biotin-GGGAFASAKA-NH2 [B42] | 243.8 ± 9.10 | 260.8 ± 10.9 | – | – | – | – | – | – | – | –
CO[C@@]12[C@H](COC(N)=O)C3=C(C(=O)C(C)=C(N)C3=O)N1C[C@@H]1N[C@@H]12 [Mit C, Mitomycin C] | – | – | significant increase | 14.6 × 10^–6 | 175.3 × 10^–6 | – | – | – | – | –
Ac-FAQRVPPGGG(LDLD)3-CONH2 [compound 68] | 238.1 ± 8.05 | 247.9 ± 7.60 | – | – | – | increased | Significant higher | significantly different | – | –
FAQRVPPGGG(LDLK)3-CONH2 [compound 46] | 250.5 ± 9.10 | 265.2 ± 8.20 | – | – | – | – | – | – | increased | reduced cell migration

Source: PMC10883997, “Multiparametric in vitro and in vivo analysis of the safety profile of self-assembling peptides” (Scientific Reports, 2024)
